target: T1, human MC2R (Homo sapiens, UniProt Q01718); assay: Measurement of human MC2R inhibitory activity using intracellular cAMP concentration as an indicator; format: cell-based; settings: test compound at 1 µM; GeneBLAzer MC2R-CRE-bla CHO-K1 cells; ACTH (Human 1-24) final concentration 3 pM; intracellular cAMP by HTRF; read-out: MC2R inhibition rate (% of inhibition)
T1 construct: host or cells: GeneBLAzer MC2R-CRE-bla CHO-K1 cells
Protocol: Experimental Example 1: Measurement of human MC2R inhibitory activity using intracellular cAMP concentration as an indicator
GeneBLAzer MC2R-CRE-bla CHO-K1 cells (Thermo Fisher Scientific) that had been cryopreserved in advance were thawed and suspended in a medium [Dulbecco's Modified Eagle Medium (Thermo Fisher Scientific) containing fetal bovine serum (10% (v/v), HyClone Laboratories), Non-Essential Amino Acids Solution (1/100 (w/w), Thermo Fisher Scientific), HEPES (25 mM, Thermo Fisher Scientific), Penicillin/Streptomycin (1/100 (w/w), Fujifilm Wako)]. After centrifuging the cell suspension, the supernatant was removed, the cells were suspended in D-PBS(-) (Fujifilm Wako), and the supernatant was removed again after centrifugation. The cells were resuspended in an assay buffer [Hank's Balanced Salt Solution (Thermo Fisher Scientific) containing HEPES pH 7.5 (10 mM, Thermo Fisher Scientific), fatty acid-free bovine serum albumin (0.01% (w/v), Sigma), IBMX (500 µM, Fujifilm Wako)] and added to a 384-well white plate (Greiner) at 1,500 cells/well. Then, the test compound prepared using the assay buffer was added, and after standing for 20 min, an assay buffer containing ACTH (Human 1-24) (Peptide Institute) was added (ACTH final concentration, 3 pM). After standing at room temperature for 30 min, the intracellular cAMP level was measured using cAMP Gs HiRange kit HTRF (PerkinElmer). The inhibition rate (%) of the compound against MC2R was calculated using the following formula. Inhibition rate (%) = […] [formula] • A: cAMP concentration calculated from wells containing 3 pM ACTH (1-24) • B: cAMP concentration calculated from wells without addition of 3 pM ACTH (1-24) • C: cAMP concentration calculated from wells containing 3 pM ACTH (1-24) and test compound at concentration determined in advance

T1 sequence (Q01718 whole entry): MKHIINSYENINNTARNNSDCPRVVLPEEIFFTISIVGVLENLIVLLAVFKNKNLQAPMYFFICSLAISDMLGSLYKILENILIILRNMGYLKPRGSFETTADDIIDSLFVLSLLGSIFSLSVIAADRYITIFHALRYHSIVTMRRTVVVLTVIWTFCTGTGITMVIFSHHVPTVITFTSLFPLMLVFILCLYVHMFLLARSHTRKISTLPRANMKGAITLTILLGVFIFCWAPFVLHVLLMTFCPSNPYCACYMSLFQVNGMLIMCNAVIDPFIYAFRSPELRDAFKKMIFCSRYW
T1 sequence (Q8TCY5 whole entry partner): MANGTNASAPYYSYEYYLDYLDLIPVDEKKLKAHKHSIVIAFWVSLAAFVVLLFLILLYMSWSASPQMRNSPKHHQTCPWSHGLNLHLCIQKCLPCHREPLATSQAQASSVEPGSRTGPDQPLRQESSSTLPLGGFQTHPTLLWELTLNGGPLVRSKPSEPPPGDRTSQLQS

Row | inhibition at 1 µM [%] | Compound
1 | 100 | CCOc1ncccc1-c1ccc(N2C[C@H]3CN(c4ccc(Cl)cc4C(F)(F)F)C(=O)N3C[C@H]2CC)c(C(=O)NC[C@H]2CCN2)n1 [Example 44, 3-[(6R,8aS)-2-[4-chloro-2-(trifluoromethyl)phenyl]-6-ethyl-3-oxo-5,6,8,8a-tetrahydro-1H-imidazo[1,5-a]pyrazin-7-yl]-N-[[(2R)-azetidin-2-yl]methyl]-6-(2-ethoxypyridin-3-yl)pyridine-2-carboxamide]
2 | 100 | CCOc1ncccc1-c1ccc(N2C[C@H]3CN(c4ccc(Cl)cc4C(F)(F)F)C(=O)N3C[C@H]2CC)c(C(=O)NC[C@@H]2CCN2)n1 [Example 46, 3-[(6R,8aS)-2-[4-chloro-2-(trifluoromethyl)phenyl]-6-ethyl-3-oxo-5,6,8,8a-tetrahydro-1H-imidazo[1,5-a]pyrazin-7-yl]-N-[[(2S)-azetidin-2-yl]methyl]-6-(2-ethoxypyridin-3-yl)pyridine-2-carboxamide]
3 | 100 | CCOc1ncccc1-c1ccc(N2C[C@H]3CN(c4ccc(Cl)cc4C(F)(F)F)C(=O)N3C[C@H]2CC)c(C(=O)N[C@H]2CCNC2=O)n1 [Example 48, 3-[(6R,8aS)-2-[4-chloro-2-(trifluoromethyl)phenyl]-6-ethyl-3-oxo-5,6,8,8a-tetrahydro-1H-imidazo[1,5-a]pyrazin-7-yl]-6-(2-ethoxypyridin-3-yl)-N-[(3S)-2-oxopyrrolidin-3-yl]pyridine-2-carboxamide]
4 | 100 | CCOc1ncccc1-c1ccc(N2C[C@H]3CN(c4ccc(Cl)cc4C(F)(F)F)C(=O)N3C[C@H]2CC)c(C(=O)N[C@H]2CC(=O)N(C)C2)n1 [Example 50, 3-[(6R,8aS)-2-[4-chloro-2-(trifluoromethyl)phenyl]-6-ethyl-3-oxo-5,6,8,8a-tetrahydro-1H-imidazo[1,5-a]pyrazin-7-yl]-6-(2-ethoxypyridin-3-yl)-N-[(3S)-1-methyl-5-oxopyrrolidin-3-yl]pyridine-2-carboxamide]
5 | 100 | CCOc1ncccc1-c1ccc(N2C[C@H]3CN(c4ccc(F)cc4C(F)(F)F)C(=O)N3C[C@H]2CC)c(C(=O)N[C@H]2CNC(=O)C2)n1 [Example 51, 3-[(6R,8aS)-6-ethyl-2-[4-fluoro-2-(trifluoromethyl)phenyl]-3-oxo-5,6,8,8a-tetrahydro-1H-imidazo[1,5-a]pyrazin-7-yl]-6-(2-ethoxypyridin-3-yl)-N-[(3R)-5-oxopyrrolidin-3-yl]pyridine-2-carboxamide]
6 | 100 | CCOc1ncccc1-c1ccc(N2C[C@H]3CN(c4ccc(F)cc4C(F)(F)F)C(=O)N3C[C@H]2CC)c(C(=O)N[C@@H]2CC(=O)N(C)C2)n1 [Example 52, 3-[(6R,8aS)-6-ethyl-2-[4-fluoro-2-(trifluoromethyl)phenyl]-3-oxo-5,6,8,8a-tetrahydro-1H-imidazo[1,5-a]pyrazin-7-yl]-6-(2-ethoxypyridin-3-yl)-N-[(3R)-1-methyl-5-oxopyrrolidin-3-yl]pyridine-2-carboxamide]
7 | 100 | CCOc1ncccc1-c1ccc(N2C[C@H]3CN(c4ccc(Cl)cc4C#N)C(=O)N3C[C@H]2CC)c(C(=O)N[C@H]2CNC(=O)C2)n1 [Example 53, 3-[(6R,8aS)-2-(4-chloro-2-cyanophenyl)-6-ethyl-3-oxo-5,6,8,8a-tetrahydro-1H-imidazo[1,5-a]pyrazin-7-yl]-6-(2-ethoxypyridin-3-yl)-N-[(3R)-5-oxopyrrolidin-3-yl]pyridine-2-carboxamide]
8 | 100 | CCOc1ncccc1-c1ccc(N2C[C@H]3CN(c4ccc(F)cc4C#N)C(=O)N3C[C@H]2CC)c(C(=O)N[C@H]2CNC(=O)C2)n1 [Example 55, 3-[(6R,8aS)-2-(2-cyano-4-fluorophenyl)-6-ethyl-3-oxo-5,6,8,8a-tetrahydro-1H-imidazo[1,5-a]pyrazin-7-yl]-6-(2-ethoxypyridin-3-yl)-N-[(3R)-5-oxopyrrolidin-3-yl]pyridine-2-carboxamide]
9 | 100 | CCOc1ncccc1-c1ccc(N2C[C@H]3CN(c4ccc(C(F)(F)F)cc4C#N)C(=O)N3C[C@H]2CC)c(C(=O)N[C@H]2CNC(=O)C2)n1 [Example 56, 3-[(6R,8aS)-2-[2-cyano-4-(trifluoromethyl)phenyl]-6-ethyl-3-oxo-5,6,8,8a-tetrahydro-1H-imidazo[1,5-a]pyrazin-7-yl]-6-(2-ethoxypyridin-3-yl)-N-[(3R)-5-oxopyrrolidin-3-yl]pyridine-2-carboxamide]

The remaining lines, values behind:

Row | Compound | inhibition at 1 µM [%]
10 | CCOc1ncccc1-c1ccc(N2C[C@H]3CN(c4ccc(Cl)cc4C(F)(F)F)C(=O)N3C[C@H]2CC)c(C(=O)NC[C@H]2CCN2C(=O)OC(C)(C)C)n1 [Example 43, tert-butyl (2R)-2-[[[3-[(6R,8aS)-2-[4-chloro-2-(trifluoromethyl)phenyl]-6-ethyl-3-oxo-5,6,8,8a-tetrahydro-1H-imidazo[1,5-a]pyrazin-7-yl]-6-(2-ethoxypyridin-3-yl)pyridine-2-carbonyl]amino]methyl]azetidine-1-carboxylate] | 100
11 | CCOc1ncccc1-c1ccc(N2C[C@H]3CN(c4ccc(Cl)cc4C(F)(F)F)C(=O)N3C[C@H]2CC)c(C(=O)NC[C@@H]2CCN2C(=O)OC(C)(C)C)n1 [Example 45, tert-butyl (2S)-2-[[[3-[(6R,8aS)-2-[4-chloro-2-(trifluoromethyl)phenyl]-6-ethyl-3-oxo-5,6,8,8a-tetrahydro-1H-imidazo[1,5-a]pyrazin-7-yl]-6-(2-ethoxypyridin-3-yl)pyridine-2-carbonyl]amino]methyl]azetidine-1-carboxylate] | 100
12 | CCOc1ncccc1-c1ccc(N2C[C@H]3CN(c4ccc(Cl)cc4C#N)C(=O)N3C[C@H]2CC)c(C(=O)N[C@@H]2CC(=O)N(C)C2)n1 [Example 54, 3-[(6R,8aS)-2-(4-chloro-2-cyanophenyl)-6-ethyl-3-oxo-5,6,8,8a-tetrahydro-1H-imidazo[1,5-a]pyrazin-7-yl]-6-(2-ethoxypyridin-3-yl)-N-[(3R)-1-methyl-5-oxopyrrolidin-3-yl]pyridine-2-carboxamide] | 100
13 | CCOc1ncccc1-c1ccc(N2C[C@H]3CN(c4ccc(C(F)(F)F)cc4C#N)C(=O)N3C[C@H]2CC)c(C(=O)N[C@@H]2CC(=O)N(C)C2)n1 [Example 57, 3-[(6R,8aS)-2-[2-cyano-4-(trifluoromethyl)phenyl]-6-ethyl-3-oxo-5,6,8,8a-tetrahydro-1H-imidazo[1,5-a]pyrazin-7-yl]-6-(2-ethoxypyridin-3-yl)-N-[(3R)-1-methyl-5-oxopyrrolidin-3-yl]pyridine-2-carboxamide] | 100
14 | CCOc1ncccc1-c1ccc(N2C[C@H]3CN(c4ccc(F)cc4C#N)C(=O)N3C[C@H]2CC)c(C(=O)N[C@@H]2CC(=O)N(C)C2)n1 [Example 58, 3-[(6R,8aS)-2-(2-cyano-4-fluorophenyl)-6-ethyl-3-oxo-5,6,8,8a-tetrahydro-1H-imidazo[1,5-a]pyrazin-7-yl]-6-(2-ethoxypyridin-3-yl)-N-[(3R)-1-methyl-5-oxopyrrolidin-3-yl]pyridine-2-carboxamide] | 100
15 | CCOc1ncccc1-c1ccc(N2C[C@H]3CN(C4(C(F)(F)F)CC4)C(=O)N3C[C@H]2CC)c(C(=O)N[C@@H]2CC(=O)N(C)C2)n1 [Example 59, 3-[(6R,8aS)-6-ethyl-3-oxo-2-[1-(trifluoromethyl)cyclopropyl]-5,6,8,8a-tetrahydro-1H-imidazo[1,5-a]pyrazin-7-yl]-6-(2-ethoxy-3-pyridinyl)-N-[(3R)-1-methyl-5-oxopyrrolidin-3-yl]pyridine-2-carboxamide] | 87
16 | CCOc1ncccc1-c1ccc(N2C[C@H]3CN(c4ccc(Cl)cc4C(F)(F)F)C(=O)N3C[C@H]2C)c(C(=O)N[C@@H]2CC(=O)N(C)C2)n1 [Example 60, 3-[(6R,8aS)-2-[4-chloro-2-(trifluoromethyl)phenyl]-6-methyl-3-oxo-5,6,8,8a-tetrahydro-1H-imidazo[1,5-a]pyrazin-7-yl]-6-(2-ethoxy-3-pyridinyl)-N-[(3R)-1-methyl-5-oxopyrrolidin-3-yl]pyridine-2-carboxamide] | 97
17 | COc1ncccc1-c1ccc(N2C[C@H]3CN(c4ccc(Cl)cc4C(F)(F)F)C(=O)N3C[C@H]2C)c(C(=O)N[C@@H]2CC(=O)N(C)C2)n1 [Example 61, 3-[(6R,8aS)-2-[4-chloro-2-(trifluoromethyl)phenyl]-6-methyl-3-oxo-5,6,8,8a-tetrahydro-1H-imidazo[1,5-a]pyrazin-7-yl]-6-(2-methoxy-3-pyridinyl)-N-[(3R)-1-methyl-5-oxopyrrolidin-3-yl]pyridine-2-carboxamide] | 97
18 | CCOc1ccccc1-c1ccc(N2C[C@H]3CN(C4(C(F)(F)F)CC4)C(=O)N3C[C@H]2CC)c(C(=O)N[C@@H]2CC(=O)N(C)C2)n1 [Example 62, 3-[(6R,8aS)-6-ethyl-3-oxo-2-[1-(trifluoromethyl)cyclopropyl]-5,6,8,8a-tetrahydro-1H-imidazo[1,5-a]pyrazin-7-yl]-6-(2-ethoxyphenyl)-N-[(3R)-1-methyl-5-oxopyrrolidin-3-yl]pyridine-2-carboxamide] | 98
